Reference: patent US9309248B2, “Azaindolines” (Hoffmann-La Roche Inc., priority 2012, dated 2016)

Columns and labels:
[1] = biological target: T1, BIR2 domain of XIAP (Homo sapiens, UniProt P98170, C202A/C213G); experiment: TR-FRET assay for BIR2 (inhibition of binding of XIAP BIR2 domain to SMAC-derived Peptide A); conditions: 6x Histidine-tagged BIR2 domain (amino acids 124-240 of XIAP) 10 nM, Peptide A 20 nM
T1 construct: 6× Histidine-tagged BIR2 domain, corresponding to amino acids 124-240 of XIAP
Method in brief: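 Inhibition of binding of the XIAP BIR2 domain (C202A/C213G) to biotinylated SMAC-derived Peptide A was measured. TR-FRET signal was read after 1 h at room temperature.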

[2] = biological target: T2, BIR3 domain of XIAP (Homo sapiens, UniProt P98170); experiment: TR-FRET assay for BIR3 (inhibition of binding of XIAP BIR3 domain to SMAC-derived Peptide A); conditions: 6x Histidine-tagged BIR3 domain (amino acids 241-356 of XIAP) 10 nM, Peptide A 20 nM
T2 construct: BIR3 domain, corresponding to amino acids 241-356 of XIAP
Method in brief: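 His6-tagged XIAP BIR3 (aa 241-356, 10 nM) was mixed with 20 nM biotinylated SMAC-derived peptide in 50 mM Tris-Cl pH 7.5, 100 mM NaCl, 1 mM DTT, 0.1 mg/mL BSA and incubated 45 min at 37 °C. Eu-streptavidin (1.5 nM) and APC anti-His (15 nM) were added, with TR-FRET read 1 h later at RT. IC50 came from % inhibition over 10 serial concentrations.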

T2 sequence (P98170 with tags, fused parts or gaps): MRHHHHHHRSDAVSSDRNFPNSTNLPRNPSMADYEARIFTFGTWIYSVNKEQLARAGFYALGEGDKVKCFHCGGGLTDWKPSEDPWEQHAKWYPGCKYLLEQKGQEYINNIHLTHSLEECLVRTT
T1 sequence (P98170 with tags, fused parts or gaps C202A/C213G): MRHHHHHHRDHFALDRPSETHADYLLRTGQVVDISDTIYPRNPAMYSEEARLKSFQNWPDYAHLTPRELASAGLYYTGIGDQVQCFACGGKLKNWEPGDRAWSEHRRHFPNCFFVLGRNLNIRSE

| SMILES | IC50 [1] [nM] | IC50 [2] [nM] |
| --- | --- | --- |
| CNC(=O)c1ccc(NC(=O)[C@@H]2Cc3cccnc3N2C(=O)[C@@H](NC(=O)[C@H](C)NC)C(C)C)c(F)c1 [Example 64, (S)-1-[(S)-3-Methyl-2-((S)-2-methylamino-propionylamino)-butyryl]-2,3-dihydro-1H-pyrrolo[2,3-b]pyridine-2-carboxylic acid (2-fluoro-4-methylcarbamoyl-phenyl)-amide] | 59.6 | > 54800 |
| CN[C@@H](C)C(=O)N[C@H](C(=O)N1c2ncccc2C[C@H]1C(=O)Nc1nc(C)cs1)C(C)C [Example 66, (S)-1-[(S)-3-Methyl-2-((S)-2-methylamino-propionylamino)-butyryl]-2,3-dihydro-1H-pyrrolo[2,3-b]pyridine-2-carboxylic acid (4-methyl-thiazol-2-yl)-amide] | 496 | > 54800 |
| CN[C@@H](C)C(=O)N[C@H](C(=O)N1c2ncccc2C[C@H]1C(=O)Nc1ncc(C)s1)C(C)C [Example 67, (S)-1-[(S)-3-Methyl-2-((S)-2-methylamino-propionylamino)-butyryl]-2,3-dihydro-1H-pyrrolo[2,3-b]pyridine-2-carboxylic acid (5-methyl-thiazol-2-yl)-amide] | 92.6 | > 54800 |
| CN[C@@H](C)C(=O)N[C@H](C(=O)N1c2ncccc2C[C@H]1C(=O)Nc1ccncc1F)C(C)C [Example 69, (S)-1-[(S)-3-Methyl-2-((S)-2-methylamino-propionylamino)-butyryl]-2,3-dihydro-1H-pyrrolo[2,3-b]pyridine-2-carboxylic acid (3-fluoro-pyridin-4-yl)-amide] | 105 | > 54800 |
| CN[C@@H](C)C(=O)N[C@H](C(=O)N1c2ncccc2C[C@H]1C(=O)Nc1c(F)cccc1C(F)(F)F)C(C)C [Example 73, (S)—N-(2-fluoro-6-(trifluoromethyl)phenyl)-1-((S)-3-methyl-2-((S)-2-(methylamino)propanamido)butanoyl)-2,3-dihydro-1H-pyrrolo[2,3-b]pyridine-2-carboxamide] | 69.1 | > 54800 |
| CCN[C@@H](C)C(=O)N[C@H](C(=O)N1c2ncccc2C[C@H]1C(=O)Nc1ccccc1)C1CCCCC1 [Example 76, (S)-1-[(S)-2-Cyclohexyl-2-((S)-2-ethylamino-propionylamino)-acetyl]-2,3-dihydro-1H-pyrrolo[2,3-b]pyridine-2-carboxylic acid phenylamide] | 353 | > 54800 |
| CN[C@@H](C)C(=O)N[C@H](C(=O)N1c2ncccc2C[C@@H]1C(=O)Nc1ccccc1)C1CCCCC1 [Example 79, (R)-1-[(S)-2-Cyclohexyl-2-((S)-2-methylamino-propionylamino)-acetyl]-2,3-dihydro-1H-pyrrolo[2,3-b]pyridine-2-carboxylic acid phenylamide] | > 54800 | > 54800 |
| CN[C@@H](C)C(=O)N[C@H](C(=O)N1c2ncccc2C[C@H]1C(=O)Nc1ccccc1)C1CCCCC1 [Example 80, (S)-1-[(S)-2-Cyclohexyl-2-((S)-2-methylamino-propionylamino)-acetyl]-2,3-dihydro-1H-pyrrolo[2,3-b]pyridine-2-carboxylic acid phenylamide] | 117 | > 54800 |

These reach a lower IC50 [1]. Values come first.

| IC50 [1] [nM] | IC50 [2] [nM] | SMILES |
| --- | --- | --- |
| 35.1 | > 54800 | CN[C@@H](C)C(=O)N[C@H](C(=O)N1c2ncccc2C[C@H]1C(=O)Nc1ccc(C(=O)N(C)C)cc1F)C(C)C [Example 62, (S)-1-[(S)-3-Methyl-2-((S)-2-methylamino-propionylamino)-butyryl]-2,3-dihydro-1H-pyrrolo[2,3-b]pyridine-2-carboxylic acid (4-dimethylcarbamoyl-2-fluoro-phenyl)-amide] |
| 32 | > 54800 | CN[C@@H](C)C(=O)N[C@H](C(=O)N1c2ncccc2C[C@H]1C(=O)Nc1ccc(Br)cc1F)C(C)C [Example 63, (S)-1-[(S)-3-Methyl-2-((S)-2-methylamino-propionylamino)-butyryl]-2,3-dihydro-1H-pyrrolo[2,3-b]pyridine-2-carboxylic acid (4-bromo-2-fluoro-phenyl)-amide] |
| 35.1 | > 54800 | CN[C@@H](C)C(=O)N[C@H](C(=O)N1c2ncccc2C[C@H]1C(=O)Nc1ccc(F)cc1F)C(C)C [Example 65, (S)-1-[(S)-3-Methyl-2-((S)-2-methylamino-propionylamino)-butyryl]-2,3-dihydro-1H-pyrrolo[2,3-b]pyridine-2-carboxylic acid (2,4-difluoro-phenyl)-amide] |
| 21.5 | > 54800 | CN[C@@H](C)C(=O)N[C@H](C(=O)N1c2ncccc2C[C@H]1C(=O)Nc1c(F)cccc1Cl)C(C)C [Example 70, (S)-1-[(S)-3-Methyl-2-((S)-2-methylamino-propionylamino)-butyryl]-2,3-dihydro-1H-pyrrolo[2,3-b]pyridine-2-carboxylic acid (2-chloro-6-fluoro-phenyl)-amide] |
| 19.2 | > 54800 | CN[C@@H](C)C(=O)N[C@H](C(=O)N1c2ncccc2C[C@H]1C(=O)Nc1c(C)cccc1Cl)C(C)C [Example 71, (S)-1-[(S)-3-Methyl-2-((S)-2-methylamino-propionylamino)-butyryl]-2,3-dihydro-1H-pyrrolo[2,3-b]pyridine-2-carboxylic acid (2-chloro-6-methyl-phenyl)-amide] |
| 13.7 | > 54800 | CN[C@@H](C)C(=O)N[C@H](C(=O)N1c2ncccc2C[C@H]1C(=O)Nc1c(Cl)cc(Cl)cc1Cl)C(C)C [Example 72, (S)-1-[(S)-3-Methyl-2-((S)-2-methylamino-propionylamino)-butyryl]-2,3-dihydro-1H-pyrrolo[2,3-b]pyridine-2-carboxylic acid (2,4,6-trichloro-phenyl)-amide] |
| 16.6 | > 54800 | CN[C@@H](C)C(=O)N[C@H](C(=O)N1c2ncccc2C[C@H]1C(=O)Nc1c(Cl)cccc1Cl)C(C)C [Example 74, (S)-1-[(S)-3-Methyl-2-((S)-2-methylamino-propionylamino)-butyryl]-2,3-dihydro-1H-pyrrolo[2,3-b]pyridine-2-carboxylic acid (2,6-dichloro-phenyl)-amide] |
| 57.5 | > 54800 | CN[C@@H](C)C(=O)N[C@H](C(=O)N1c2ncccc2C[C@H]1C(=O)Nc1c(Cl)cccc1C(F)(F)F)C(C)C [Example 75, (S)-1-[(S)-3-Methyl-2-((S)-2-methylamino-propionylamino)-butyryl]-2,3-dihydro-1H-pyrrolo[2,3-b]pyridine-2-carboxylic acid (2-chloro-6-trifluoromethyl-phenyl)-amide] |
| 46.2 | > 54800 | CCN[C@@H](C)C(=O)N[C@H](C(=O)N1c2ncccc2C[C@H]1C(=O)Nc1c(F)cccc1F)C(C)C [Example 77, (S)-1-[(S)-2-((S)-2-Ethylamino-propionylamino)-3-methyl-butyryl]-2,3-dihydro-1H-pyrrolo[2,3-b]pyridine-2-carboxylic acid (2,6-difluoro-phenyl)-amide] |
| 14.2 | > 54800 | CC[C@H](NC)C(=O)N[C@H](C(=O)N1c2ncccc2C[C@H]1C(=O)Nc1c(F)cccc1F)C(C)C [Example 78, (S)-1-[(S)-3-Methyl-2-((S)-2-methylamino-butyrylamino)-butyryl]-2,3-dihydro-1H-pyrrolo[2,3-b]pyridine-2-carboxylic acid (2,6-difluoro-phenyl)-amide] |
